Data: PMC9785280, “Synthesis, Antiproliferative Evaluation and QSAR Analysis of Novel Halogen- and Amidino-Substituted Benzothiazoles and Benzimidazoles” (International Journal of Molecular Sciences, 2022)

Tests used:
[1] = system: MDCK1 (Madin–Darby canine kidney) cells; assay: MTT antiproliferative assay, non-tumor MDCK1 cells; format: cell-based; conditions: Canis lupus familiaris, MDCK1, 72 h, mean ± SD of three independent experiments, normal cells
Protocol: (§1) The growth inhibition activity was assessed according to the slightly modified procedure performed at the National Cancer Institute, Developmental Therapeutics Program.
(§2) Examined compounds were dissolved in DMSO (1 × 10^−2 M). The experiments were carried out on seven human tumor cell lines and two normal cell lines. The following cell lines were used: HeLa (human cervical adenocarcinoma; purchased from ATCC), CaCo-2 (human colorectal adenocarcinoma), HuT78 (T-cell lymphoma), THP-1 (acute monocytic leukemia), SW620 (colorectal adenocarcinoma, metastatic), MDA-MB-231 (human breast adenocarcinoma), HL60 (promyelocytic leukemia cell line), foreskin fibroblast cells (BJ) and MDCK1 (Madine–Darby canine kidney fibroblast like cells). MDCK1 cells were used between 24 and 26 passages.
(§3) Adherent cells were cultured in the Dulbecco’s modified Eagle medium—DMEM (Gibco, EU) supplemented with 10 % heat-inactivated fetal bovine serum (FBS, Gibco, EU), 2 mM glutamine, and 100 U/0.1 mg penicillin/streptomycin. Cells on suspension were cultured in RPMI 1640 (Gibco, EU) medium supplemented with 10 % FBS (Gibco, EU), 2 mM glutamine, 1 mM sodium pyruvate, 10 mM HEPES. Cells were grown in humidified atmosphere under the conditions of 37 °C/5% of CO2 gas in the CO2 incubator (IGO 150 CELLlife^TM, JOUAN, Thermo Fisher Scientific, Waltham, MA, USA). A erythrosin B (Sigma-Aldrich, St. Louis, MO, USA) dye exclusion method was used to assess cell viability before plating.
(§4) Adherent cells (HeLa, CaCo-2, MCF-7 and MDCK-1) were plated in 96-well flat bottom plates (Greiner, Frickenhausen, Austria) at a concentration of 2 × 10^4 cells/mL. Suspension cells (THP-1 and HuT78) were plated in 96-well microtiter plates (Sarstead, Newton, USA) at a concentration of 1 × 10^5 cells/mL. Twenty-four hours later, cells were treated with test agents in […] 10-fold dilutions ([…] to 10^−4 M) and incubated for further 72 h. Working dilutions were freshly prepared on the day of testing. The solvent was also tested for eventual inhibitory activity by adjusting its concentration to be the same as in working concentrations. After 72 h of incubation, the cell growth rate was evaluated by performing the MTT assay, which detects dehydrogenase activity in viable cells. For this purpose, upon completion of the incubation period, growth medium was discarded and 50 μL of MTT was added to each well at a concentration of 5 mg/mL. After four hours of incubation at 37 °C, water insoluble MTT-formazan crystals were dissolved in 150 μL of dimethyl-sulfoxide (DMSO) for adherent cells, and in 10 % SDS with 0.01 M/L HCl for cells grown in suspension. The absorbance (OD, optical density) was measured on a microplate reader (iMark, BIO RAD, Hercules, CA, USA) at 595 nm.
(§5) Percent of life cells was calculated as follows: % = OD (sample)–OD (background)/OD (control)–OD (background) × 100.
(§6) Optical density (OD) of background for adherent cells is the OD of MTT solution and DMSO; OD (background) for suspension cells is OD of the culture medium with MTT and 10% SDS with 0.01 M/L HCl; OD (control) is the OD of the cells growth without tested compounds.
(§7) Calculation of GI50 value curves and QC analysis is performed by using the Excel tools and GraphPadPrism software (La Jolla, CA), v. 5.03. Briefly, individual concentration effect curves are generated by plotting the logarithm of the concentration of tested compounds(X) vs. corresponding percent inhibition values (Y) using least squares fit. The best fit GI50 values are calculated using Log (inhibitor) versus normalized response—Variable slope equation, where Y Ľ 100/(1 ţ 10 ((LogIC50 _ X) * HillSlope)). QC criteria parameters (Z0, S:B, R2, HillSlope) were checked for every GI50 curve.

[2] = system: HuT78 (T-cell lymphoma) cells; assay: MTT antiproliferative assay, HuT78; format: cell-based, human; conditions: for IC50: Homo sapiens, HuT78, 72 h, 72 h, MTT, mean ± SD of three independent experiments; for SI (BJ) HuT78: SI = IC50 BJ / IC50 HuT78; for SI (MDCK) HuT78: SI = IC50 MDCK1 / IC50 HuT78
Protocol: as §1, §2, §3, §4, §5, §6, §7

[3] = system: CaCo-2 (colon adenocarcinoma) cells; assay: MTT antiproliferative assay, CaCo-2; format: cell-based, human; conditions: Homo sapiens, Caco-2; 72 h, MTT, mean ± SD of three independent experiments
Protocol: as §1, §2, §3, §4, §5, §6
as §7, with “The best fit GI50 values are calculated using Log (inhibitor) versus normalized response—Variable slope equation, where Y Ľ 100/(1 ţ 10 ((LogIC50 _ X) * HillSlope)).” left out

[4] = system: HeLa (cervical adenocarcinoma) cells; assay: MTT antiproliferative assay, HeLa; format: cell-based; conditions: Homo sapiens, 72 h, mean ± SD of three independent experiments
Protocol: as §1, §2, §3, §4, §5, §6, §7

human fibroblasts (BJ) = assay: MTT antiproliferative assay, normal BJ fibroblasts; format: cell-based; conditions: Homo sapiens, Fibroblast, 72 h, MTT, mean ± SD of three independent experiments; normal cells
Protocol: as §1, §2, §3, §4, §5, §6, §7

Row | SMILES | IC50 [1] [µM] | IC50 [2] [µM] | melting point [°C] | IC50 [3] [µM] | IC50 [4] [µM] | IC50 (human fibroblasts (BJ)) [µM] | SI (BJ) HuT78 [2] | SI (MDCK) HuT78 [2]
1 | COc1cc(-c2nc3ccc(F)cc3s2)ccc1OCc1ccccn1 [19c] | 1.1 ± 0.2 | > 100 | 152 to 156 | > 100 | > 100 | > 100 |  | 
2 | COc1cc(-c2nc3ccc(Cl)cc3s2)ccc1OCC(=O)c1ccccc1 [15c, 6-Chloro-2-(3-methoxy-4-(2-oxo-2-phenylethoxy)phenyl)benzothiazole] | 79.3 ± 14.4 | > 100 | 163 to 166 | > 100 | > 100 | > 100 |  | 
3 | COc1cc(-c2nc3ccc(Cl)cc3s2)ccc1OCc1c[nH]nn1 [21c, 6-Chloro-2-(3-methoxy-4-((1H-1,2,3-triazol-4-yl)methoxy)phenyl)benzothiazole] | 43.2 ± 12.4 | 24.3 ± 6.5 | 183 to 188 | > 100 | > 100 | > 100 | 4.11 | 1.78
4 | c1ccc2sc(-c3ccc(OCc4c[nH]nn4)cc3)nc2c1 [23a, 2-(4-((1H-1,2,3-triazol-4-yl)methoxy)phenyl)benzothiazole] | 40.7 ± 5.7 | 19 ± 4 | 204 to 207 | 95.6 ± 6.6 | 52.4 ± 18.4 | > 100 | 5.26 | 2.14
5 | COc1cc(-c2nc3ccc(C4=NCCN4)cc3s2)ccc1OCc1ccccn1.Cl [35c, 2-(3-Methoxy-4-(pyridin-2-ylmethoxy)phenyl)-6-(4,5-dihydro-1H-imidazol-2-yl)benzothiazole hydrochloride] | 7.5 ± 3.5 | 6.2 ± 2.7 | 219 to 223 | 18.2 ± 3.3 | 21.8 ± 5.5 | 6.7 ± 4.9 |  | 
6 | Fc1ccc2nc(-c3ccc(OCc4cn(Cc5ccccc5)nn4)cc3)sc2c1 [25a, 6-Fluoro-2-(4-((1-benzyl-1H-1,2,3-triazol-4-yl)methoxy)phenyl)benzothiazole] | 8.2 ± 5.8 | > 100 | 176 to 180 | > 100 | > 100 | 10 ± 0.01 |  | 
7 | Cl.O=C(COc1ccc(-c2nc3ccc(C4=NCCN4)cc3s2)cc1F)c1ccccc1 [34b, 2-(3-Fluoro-4-(2-oxo-2-phenylethoxy)phenyl)-6-(4,5-dihydro-1H-imidazol-2-yl)benzothiazole hydrochloride] | 2.2 ± 0.3 | 2.1 ± 0.2 | > 240 | 7 ± 5.4 | 4.5 ± 4.3 | 11.2 ± 6 |  | 
8 | Clc1ccc2nc(-c3ccc(OCc4cn(Cc5ccccc5)nn4)cc3)sc2c1 [24a, 6-Chloro-2-(4-((1-benzyl-1H-1,2,3-triazol-4-yl)methoxy)phenyl)benzothiazole] | 11.4 ± 14.5 | > 100 | 201 to 205 | > 100 | > 100 | > 100 |  | 
9 | COc1cc(-c2nc3ccccc3s2)ccc1OCC(=O)c1ccccc1 [17c, 2-(3-Methoxy-4-(2-oxo-2-phenylethoxy)phenyl)benzothiazole] | 78 ± 27.8 | > 100 | 184 to 186 | > 100 | > 100 | > 100 |  | 
10 | COc1cc(-c2nc3ccc(F)cc3s2)ccc1OCc1c[nH]nn1 [22c, 6-Fluoro-2-(3-methoxy-4-((1H-1,2,3-triazol-4-yl)methoxy)phenyl)benzothiazole] | 0.7 ± 0.3 | 38.1 ± 23.4 | 196 to 199 | > 100 | > 100 | > 100 | 2.62 | 
11 | COc1cc(-c2nc3ccccc3s2)ccc1OCc1cn(Cc2ccccc2)nn1 [26c, 2-(3-Methoxy-4-((1-benzyl-1H-1,2,3-triazol-4-yl)methoxy)phenyl)benzothiazole] | 8.5 ± 6.4 | 23.7 ± 5.2 | 170 to 173 | > 100 | 23.3 ± 15.3 | 76.7 ± 27.7 | 3.24 | 
12 | O=C(COc1ccc(-c2nc3ccc(F)cc3s2)cc1F)c1ccccc1 [16b, 6-Fluoro-2-(3-fluoro-4-(2-oxo-2-phenylethoxy)phenyl)benzothiazole] | 25.8 ± 9.4 | 69.8 ± 15.5 | 148 to 152 | 89.3 ± 15.8 | > 100 | > 100 | 1.43 | 
13 | O=C(COc1ccc(-c2nc3ccc(F)cc3s2)cc1)c1ccccc1 [16a, 6-Fluoro-2-(4-(2-oxo-2-phenylethoxy)phenyl)benzothiazole] | 87.3 ± 6.9 | > 100 | 164 to 167 | > 100 | > 100 | > 100 |  | 
14 | COc1cc(-c2nc3ccc(Cl)cc3s2)ccc1OCc1cn(Cc2ccccc2)nn1 [24c, 6-Chloro-2-(3-methoxy-4-((1-benzyl-1H-1,2,3-triazol-4-yl)methoxy)phenyl)benzothiazole] | 41.1 ± 17.2 | 49.6 ± 38 | 190 to 193 | > 100 | 82.8 ± 32.3 | > 100 | 2.0 | 
15 | COc1cc(-c2nc3ccc(Cl)cc3s2)ccc1OCc1ccccn1 [18c] | 41.4 ± 8.1 | 55.6 ± 34.6 | 173 to 176 | > 100 | 67.3 ± 7.8 | > 100 |  | 
16 | Cl.c1ccc(Cn2cc(COc3ccc(-c4nc5ccc(C6=NCCN6)cc5s4)cc3)nn2)cc1 [37a, 2-(4-((1-Benzyl-1H-1,2,3-triazol-4-yl)methoxy)phenyl)-6-(4,5-dihydro-1H-imidazol-2-yl)benzothiazole hydrochloride] | 1.5 ± 0.3 | 1.6 ± 0.8 | 153 to 156 | 3.7 ± 1.5 | 3.6 ± 0.1 | 4.3 ± 3.6 |  | 
17 | Fc1cc(-c2nc3ccccc3s2)ccc1OCc1cn(Cc2ccccc2)nn1 [26b, 2-(3-Fluoro-4-((1-benzyl-1H-1,2,3-triazol-4-yl)methoxy)phenyl)benzothiazole] | 64.8 ± 38.5 | > 100 | 198 to 201 | > 100 | > 100 | > 100 |  | 
18 | Fc1ccc2nc(-c3ccc(OCc4c[nH]nn4)c(F)c3)sc2c1 [22b, 6-Fluoro-2-(3-fluoro-4-((1H-1,2,3-triazol-4-yl)methoxy)phenyl)benzothiazole] | 1 | 9.1 ± 2.8 | 177 to 180 | > 100 | 50.6 ± 19.3 | 86.4 ± 20.9 | 9.49 | 
19 | Fc1cc(-c2nc3ccc(Cl)cc3s2)ccc1OCc1ccccn1 [18b] | 29.8 ± 17.7 | > 100 | 211 to 215 | > 100 | > 100 | > 100 |  | 
